# Like-named read-outs stand apart in the source and are kept apart here.
# Assays:
# MOLM-13 cells [1] = assay: MOLM-13 48 Hour Cell Proliferation Assay; assay type: cell-based; details: Homo sapiens
# Procedure: MOLM-13 (DSMZ) cells were seeded at 1000 cells per well in a volume of 44 μL in a Falcon 384-well tissue culture treated clear bottom microplate in RPMI 1640 media containing 10% fetal bovine serum using a Multidrop Combi (ThermoFisher Scientific). Cells were incubated overnight at 37° C. in a humidified tissue culture incubator. The Mosquito® HTS Liquid Handler was used to make a compound/media intermediate plate by aliquoting 1 μL of compound from the initial compound dilution plate (concentrations ranging from 10.0 mM to 38.0 nM in 100% DMSO) into a V bottom 384-well screen matrix plate containing 49 μL of media containing the appropriate serum (50-fold dilution, 2% DMSO). The Apricot liquid handling system was used to transfer 6.2 μL compounds from the intermediate plate into the Falcon 384-well tissue culture plate containing 44 μL cells (10-point, 4-fold dilution spanning concentrations 25.0 μM to […], 0.25% DMSO final), and placed in a humidified tissue culture incubator at 37° C. After 48 hours, 25 μL of Cell Titer-Glo reagent (Promega) was added to each well using a Multidrop Combi. The plate was protected from light and placed on an IKA plate shaker for at 300 rpm for 10 minutes at room temperature. The plate was read on an EnVision plate reader (Perkin Elmer) using the Ultra Sensitive Luminescence protocol. Data analysis was performed by normalizing the raw luminescence units to an average of the positive control values for staurosporine (100% cell death) and the negative control values for DMSO (0% cell death). An IC50 was calculated using a 4-parameter logistic nonlinear regression model in GraphPad Prism.
# [2] = tested on: m6A in cellular mRNA of MOLM-13 cells; assay: m6A-mRNA LC-MS/MS Assay (m6A cellular assay); assay type: cell-based; details: Homo sapiens
# Procedure: Cells were harvested by centrifugation followed by mRNA extraction using DIRECT Dynabeads mRNA DIRECT kit (Life Technologies). mRNA was quantified on NanoDrop spectrophotometer (Thermo Fisher Scientific) and digested into single nucleosides using Nucleoside Digestion Mix (New England Biolabs). […] Quantification is performed in comparison with the standard curve, obtained from pure nucleoside standards (Selleck Chemicals) running with the same batch of samples. Percentage m^6A in cellular mRNA is calculated as 100*(m^6A/A).
# METTL3/METTL14 = METTL3/METTL14 (Homo sapiens, UniProt Q86U44); assay: METTL3-14 Standard Enzyme Assay (METTL3 biochemical assay)
# Sequence of METTL3/METTL14 (Q86U44 whole entry, species assumed): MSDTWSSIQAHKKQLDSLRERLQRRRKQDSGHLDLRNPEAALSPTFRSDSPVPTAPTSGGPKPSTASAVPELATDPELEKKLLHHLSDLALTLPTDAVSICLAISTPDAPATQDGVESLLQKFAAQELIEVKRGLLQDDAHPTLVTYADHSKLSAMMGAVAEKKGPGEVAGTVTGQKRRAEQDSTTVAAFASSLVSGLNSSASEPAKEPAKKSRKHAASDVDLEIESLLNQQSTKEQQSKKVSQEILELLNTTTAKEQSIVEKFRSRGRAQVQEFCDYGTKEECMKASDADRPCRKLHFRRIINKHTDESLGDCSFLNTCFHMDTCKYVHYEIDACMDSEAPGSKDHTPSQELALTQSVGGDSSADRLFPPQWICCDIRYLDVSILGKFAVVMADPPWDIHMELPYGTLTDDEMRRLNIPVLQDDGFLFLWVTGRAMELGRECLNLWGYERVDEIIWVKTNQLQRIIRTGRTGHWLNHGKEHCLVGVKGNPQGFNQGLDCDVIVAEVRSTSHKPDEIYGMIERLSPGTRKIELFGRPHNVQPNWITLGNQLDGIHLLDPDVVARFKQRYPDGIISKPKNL
# Sequence of METTL3/METTL14 (Q9HCE5 whole entry partner, species assumed): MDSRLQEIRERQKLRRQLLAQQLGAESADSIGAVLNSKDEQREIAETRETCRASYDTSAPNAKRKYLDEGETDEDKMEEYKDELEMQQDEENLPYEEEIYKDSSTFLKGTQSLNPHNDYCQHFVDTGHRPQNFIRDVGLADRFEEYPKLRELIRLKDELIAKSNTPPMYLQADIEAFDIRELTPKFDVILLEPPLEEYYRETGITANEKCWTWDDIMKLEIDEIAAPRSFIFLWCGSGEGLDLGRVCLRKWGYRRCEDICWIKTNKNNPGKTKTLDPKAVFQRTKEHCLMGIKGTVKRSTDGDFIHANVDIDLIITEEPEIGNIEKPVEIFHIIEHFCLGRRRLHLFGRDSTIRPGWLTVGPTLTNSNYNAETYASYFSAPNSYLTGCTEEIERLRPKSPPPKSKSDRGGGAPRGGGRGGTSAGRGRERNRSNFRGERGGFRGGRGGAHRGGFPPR
# In short: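 METTL3/METTL14 at 2.5 nM, preincubated 5 min with compound in 20 mM HEPES pH 7.5, 50 mM KCl, 250 μM MgCl2, 1 mM DTT, at ambient temperature. Started with 100 nM 3′-biotinylated RNA and 100 nM ³H-SAM, quenched at 30 min with 15 μM cold SAM. Methylation read by scintillation on streptavidin flashplates.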
# PRMT5-MEP50 = PRMT5-MEP50 (Homo sapiens, UniProt O14744); assay: PRMT5 Assay (PRMT5 biochemical assay)
# Sequence of PRMT5-MEP50 (O14744 whole entry): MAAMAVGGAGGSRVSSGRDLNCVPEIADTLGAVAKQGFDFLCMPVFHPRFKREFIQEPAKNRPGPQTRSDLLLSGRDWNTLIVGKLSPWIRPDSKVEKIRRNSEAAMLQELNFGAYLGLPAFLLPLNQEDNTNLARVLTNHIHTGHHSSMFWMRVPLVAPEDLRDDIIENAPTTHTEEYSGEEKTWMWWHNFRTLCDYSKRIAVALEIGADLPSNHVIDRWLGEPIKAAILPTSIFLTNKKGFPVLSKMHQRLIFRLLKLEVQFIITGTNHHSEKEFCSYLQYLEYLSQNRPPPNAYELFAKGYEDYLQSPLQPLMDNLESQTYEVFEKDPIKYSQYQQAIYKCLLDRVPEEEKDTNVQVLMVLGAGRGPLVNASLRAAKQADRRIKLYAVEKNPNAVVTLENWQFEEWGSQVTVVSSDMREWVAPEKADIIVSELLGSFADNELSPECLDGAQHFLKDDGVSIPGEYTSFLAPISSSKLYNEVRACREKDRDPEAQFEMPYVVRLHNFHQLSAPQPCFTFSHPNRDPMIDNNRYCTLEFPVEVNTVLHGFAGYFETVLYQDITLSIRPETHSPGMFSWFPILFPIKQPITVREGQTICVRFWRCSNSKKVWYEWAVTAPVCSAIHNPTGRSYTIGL
# Sequence of PRMT5-MEP50 (Q9BQA1 whole entry partner): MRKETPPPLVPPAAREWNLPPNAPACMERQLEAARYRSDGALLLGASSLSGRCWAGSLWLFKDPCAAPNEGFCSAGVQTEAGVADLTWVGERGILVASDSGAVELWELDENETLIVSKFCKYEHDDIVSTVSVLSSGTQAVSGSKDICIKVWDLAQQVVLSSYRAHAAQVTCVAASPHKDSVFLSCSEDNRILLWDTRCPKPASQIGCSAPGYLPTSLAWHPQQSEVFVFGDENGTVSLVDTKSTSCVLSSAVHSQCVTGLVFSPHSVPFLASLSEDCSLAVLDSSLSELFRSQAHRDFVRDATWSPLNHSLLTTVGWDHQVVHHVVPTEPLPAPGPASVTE
# In short: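 PRMT5-MEP50 (2.5 nM final) preincubated 5 min with compound, then reacted 60 min at ambient temperature with 100 nM biotinylated N-acetyl histone H4 peptide and 250 nM 3H-SAM in 20 mM Tris-HCl pH 8.0, 1 mM DTT, 0.01% Tween. Quenched with 15 μM cold SAM; methylated peptide captured on streptavidin flashplates, scintillation counted.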
# MOLM-13 cells [3] = assay: MOLM-13 96 Hour Cell Proliferation Assay; assay type: cell-based; details: Homo sapiens
# Procedure: MOLM-13 (DSMZ) cells were seeded at 600 cells per well in a volume of 44 μL in a Greiner Bio-One CELLSTAR™ 384 Well Polystyrene Cell Culture clear bottom microplate in RPMI 1640 media containing 10% fetal bovine serum using a Multidrop Combi (ThermoFisher Scientific). Cells were incubated overnight at 37° C. in a humidified tissue culture incubator. To prevent evaporation or to reduce edge effect, add 50 μL or more H2O to an empty plate, cover, and place on top of the cell plates. The Mosquito® HTS Liquid Handler was used to make a compound/media intermediate plate by aliquoting 1 μL of compound from the initial compound dilution plate (concentrations ranging from 10.0 mM to 38.0 nM in 100% DMSO) into Bio-One 384-well polypropylene conical bottom microplate containing 49 μL of media containing the appropriate serum (50-fold dilution, 2% DMSO, compound concentrations ranging from 200.0 μM and […]). The Apricot liquid handling system was used to transfer 6.2 μL compounds from the intermediate plate into the seeding plate containing 44 μL cells (8-fold dilution spanning concentrations 25.0 μM to […], 0.25% DMSO final), and placed in a humidified tissue culture incubator at 37° C. After 96 hours, 25 μL of Cell Titer-Glo reagent (Promega) was added to each well using an Integra liquid handling system. The plate was protected from light using TopSeal-A (Black) film over the entire plate, added White Bottom seal film on the bottom of the entire plate for a better reading on the Envision, and placed on an IKA plate shaker for at 300 rpm for 10 minutes at room temperature. The plate was read on an EnVision plate reader (Perkin Elmer) using the Ultra Sensitive Luminescence protocol. Data analysis was performed by normalizing the raw luminescence units to an average of the positive control values for staurosporine (100% cell death) and the negative control values for DMSO (0% cell death). An IC50 was calculated using a 4-parameter logistic nonlinear regression model in GraphPad Prism.
# METTL1/WDR4 = METTL1/WDR4 (Homo sapiens, UniProt Q9UBP6); assay: METTL1 Assay (METTL1 biochemical assay)
# Sequence of METTL1/WDR4 (Q9UBP6 whole entry, species assumed): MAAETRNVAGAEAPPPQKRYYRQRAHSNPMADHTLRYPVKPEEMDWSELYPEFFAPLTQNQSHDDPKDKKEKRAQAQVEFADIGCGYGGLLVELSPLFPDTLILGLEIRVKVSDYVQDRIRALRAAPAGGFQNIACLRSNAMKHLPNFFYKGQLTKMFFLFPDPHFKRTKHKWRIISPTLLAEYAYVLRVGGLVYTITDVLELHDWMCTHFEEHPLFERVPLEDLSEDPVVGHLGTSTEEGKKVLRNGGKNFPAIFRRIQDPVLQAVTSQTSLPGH
# Sequence of METTL1/WDR4 (P57081 whole entry partner, species assumed): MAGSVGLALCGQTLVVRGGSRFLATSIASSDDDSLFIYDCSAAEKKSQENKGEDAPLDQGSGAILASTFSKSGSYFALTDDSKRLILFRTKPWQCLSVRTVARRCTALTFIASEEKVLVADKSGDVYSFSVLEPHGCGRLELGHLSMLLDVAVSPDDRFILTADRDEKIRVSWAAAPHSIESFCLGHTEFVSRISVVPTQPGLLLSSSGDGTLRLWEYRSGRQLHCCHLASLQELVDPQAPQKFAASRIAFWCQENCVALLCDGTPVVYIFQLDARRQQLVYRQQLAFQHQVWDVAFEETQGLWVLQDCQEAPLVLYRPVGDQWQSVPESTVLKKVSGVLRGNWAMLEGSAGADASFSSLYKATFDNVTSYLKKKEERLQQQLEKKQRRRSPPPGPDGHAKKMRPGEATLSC
# In short: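 Radiometric methyltransfer by METTL1/WDR4 (6.25 nM f.c., 5 min preincubation) at ambient temperature in HEPES pH 7.5, KCl, MgCl2, DTT; started with 25 nM 3′-biotinylated RNA and 60 nM 3H-SAM, run 20 min, quenched with 15 μM cold SAM. Product captured on streptavidin flashplates (2 h, 25° C), counted by scintillation.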
# METTL16 = molecular target: T1, METTL16 (Homo sapiens, UniProt Q86W50); assay: METTL16 Assay (METTL16 biochemical assay); details: read-out: METTL16 IC50
# T1 sequence (Q86W50 1-562): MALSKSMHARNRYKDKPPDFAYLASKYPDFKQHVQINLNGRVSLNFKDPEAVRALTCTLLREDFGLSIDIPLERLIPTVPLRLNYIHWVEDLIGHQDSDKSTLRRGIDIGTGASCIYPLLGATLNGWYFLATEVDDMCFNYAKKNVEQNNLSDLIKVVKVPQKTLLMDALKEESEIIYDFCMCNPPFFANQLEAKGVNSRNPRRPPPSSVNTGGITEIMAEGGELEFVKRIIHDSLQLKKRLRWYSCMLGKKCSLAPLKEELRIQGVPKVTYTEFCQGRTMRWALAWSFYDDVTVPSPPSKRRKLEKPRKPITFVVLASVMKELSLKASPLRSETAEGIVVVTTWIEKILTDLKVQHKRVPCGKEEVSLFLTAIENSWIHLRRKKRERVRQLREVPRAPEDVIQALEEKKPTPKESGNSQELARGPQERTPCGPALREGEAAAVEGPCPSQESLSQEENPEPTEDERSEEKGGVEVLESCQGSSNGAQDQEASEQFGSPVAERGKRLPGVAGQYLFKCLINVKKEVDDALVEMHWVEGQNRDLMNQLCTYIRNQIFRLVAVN
# Procedure: Assays were performed in a 25 μl-volume in 384-well V-bottom polypropylene microplates (Greiner Bio-One, cat. No. 781280) at ambient temperature. Optimized 1× assay buffer was 20 mM HEPES pH 7.5, 50 mM KCl, 1 mM DTT, 0.01% Tween, 0.01% BSG, 0.004 U/μl RNAseOUT (cat. No. 10777019, ThermoFisher Scientific, Waltham, Mass.). For compound screening METTL16 (final concentration, f.c.=100 nM) was added using a Multidrop Combi (ThermoFisher Scientific, Waltham, Mass.) and preincubated for 5 min. Reactions were started by adding 3′ biotinylated RNA ([…]-biotin) (f.c.=50 nM), 3H-SAM (f.c.=200 nM) and non-radiolabeled SAM (f.c.=800 nM) substrates. Reactions proceeded for 20 minutes and were quenched with excess non-radioactive SAM (f.c.=100 μM). The reactions were then transferred to streptavidin-coated flashplates and incubated for 2 hours at 25° C. Following two washing cycles with 0.1% Tween-20, the plates were sealed and read on a TopCount (PerkinElmer, Waltham, Mass.) plate-based scintillation counter. For determination of kinetic parameters, reaction times were optimized so that measurements were taken during the initial velocity phase of the reaction.
# [4] = METTL1 biochemical assay; read-out: METTL1 IC50
# [5] = read-out: METTL3 IC50, METTL3 biochemical assay
# [6] = read-out: PRMT5 IC50, PRMT5 biochemical assay
# [7] = read-out: METTL1 IC50; METTL1 biochemical assay
# [8] = METTL3 biochemical assay, read-out: METTL3 IC50
# [9] = PRMT5 biochemical assay, read-out: PRMT5 IC50
Structure (SMILES),IC50 (MOLM-13 cells [1]),"IC50 ([2]; MOLM-13, read-out: m^6A IC50)",IC50 (METTL3/METTL14),IC50 (PRMT5-MEP50),IC50 (MOLM-13 cells [3]),IC50 (METTL1/WDR4; [7]),IC50 (METTL3/METTL14; [8]),IC50 (PRMT5-MEP50; [9]),"IC50 (MOLM-13 cells [3]; MOLM-13, 96 h)",other results
Cc1coc(-c2cn([C@@H]3O[C@H](COc4ccc5ccc(N6CCC6)nc5c4)[C@@H](O)[C@@H]3F)c3ncnc(N)c23)n1 [I-220],1 to 10 µM,< 1 µM,< 0.01 µM,> 1 µM,< 1 µM,,,,,
Cc1ccn(-c2cn([C@@H]3O[C@H](COc4ccc5ccc(N6CCC6)nc5c4)[C@@H](O)[C@@H]3F)c3ncnc(N)c23)n1 [I-218],,1 to 10 µM,< 0.01 µM,> 1 µM,1 to 10 µM,,,,,
CNc1ccc2ccc(OC[C@H]3O[C@@H](n4cc(-c5ccccn5)c5c(N)ncnc54)[C@@H](F)[C@@H]3O)cc2n1 [I-9],,1 to 10 µM,,,,,,,,IC50 (METTL1/WDR4; [4]): > 1 µM; IC50 (METTL3/METTL14; [5]): < 0.01 µM; IC50 (PRMT5-MEP50; [6]): 0.01 to 0.1 µM
Cc1cc(N)c2ccc(OC[C@H]3O[C@@H](n4cc(Br)c5c(N)ncnc54)C[C@@H]3O)cc2n1 [I-19],,,,,,> 1 µM,0.1 to 1 µM,0.1 to 1 µM,> 10 µM,IC50 (METTL16): > 1 µM
Nc1ncnc2c1c(-n1cccn1)cn2[C@H]1C[C@H](O)[C@@H](COc2ccc3ccc(N4CCC4)nc3c2)O1 [I-170],1 to 10 µM,< 1 µM,< 0.01 µM,> 1 µM,1 to 10 µM,,,,,
Nc1ccnc2cc(OC[C@H]3O[C@@H](n4cc(Br)c5c(N)ncnc54)[C@@H](F)[C@@H]3O)ccc12 [I-13],,,,,,,0.1 to 1 µM,0.01 to 0.1 µM,> 10 µM,IC50 (METTL16): > 1 µM
CNc1ccc2cnc(OC[C@H]3O[C@@H](n4cc(Br)c5c(N)ncnc54)[C@H](O)[C@@H]3O)nc2n1 [I-74],,,,,,> 1 µM,> 1 µM,0.1 to 1 µM,> 10 µM,IC50 (METTL16): > 1 µM
Nc1ncnc2c1c([C@@H]1CCCO1)cn2[C@@H]1O[C@H](COc2ccc3ccc(N4CCC4)nc3c2)[C@@H](O)[C@@H]1F [I-158],1 to 10 µM,< 1 µM,,,,,< 0.01 µM,,< 1 µM,
Nc1ncnc2c1ccn2[C@@H]1O[C@H](CCc2ccc3ccc(N4CCCC4)nc3c2)[C@@H](O)[C@H]1O [I-68],,,,,,> 1 µM,0.01 to 0.1 µM,0.1 to 1 µM,1 to 10 µM,IC50 (METTL16): > 1 µM
CCNc1ccc2ccc(OC[C@H]3O[C@@H](n4ccc5c(N)ncnc54)[C@@H](F)[C@@H]3O)cc2n1 [I-5],,,,,,,< 0.01 µM,0.01 to 0.1 µM,,"IC50 (METTL1/WDR4; [4]): > 1 µM; IC50 ([2]; MOLM-13, m6A cellular assay, read-out: m^6A IC50): 1 to 10 µM"
Cn1ccc(-c2cn([C@@H]3C[C@H](CCc4ccc5ccc(N6CCC6)nc5c4)[C@@H](O)C3)c3ncnc(N)c23)n1 [I-205],,1 to 10 µM,< 0.01 µM,> 1 µM,< 1 µM,,,,,
"Cn1ccc(-c2cn([C@@H]3C[C@H](COc4ccc5ccc(N6CCC6)nc5c4)[C@@H](O)C3)c3ncnc(N)c23)n1 [I-169, (1S,2R,4R)-4-[4-amino-5-(1-methyl-1H-pyrazol-3-yl)-7H-pyrrolo[2,3-d]pyrimidin-7-yl]-2-({[2-(azetidin-1-yl)quinolin-7-yl]oxy}methyl)cyclopentan-1-ol]",,1 to 10 µM,< 0.01 µM,> 1 µM,1 to 10 µM,,,,,
Nc1ncnc2c1ccn2[C@@H]1O[C@H](COc2ccc3ccc(N4CCCC4)nc3c2)[C@@H](O)[C@H]1O [I-75],> 10 µM,1 to 10 µM,,,,> 1 µM,0.01 to 0.1 µM,0.01 to 0.1 µM,,
CNc1ccc2ccc(OC[C@H]3O[C@@H](n4cc(-c5ccn(C)n5)c5c(N)ncnc54)[C@H](O)[C@@H]3O)cc2n1 [I-6],,< 1 µM,,,,,,,,IC50 (METTL1/WDR4; [4]): > 1 µM; IC50 (METTL3/METTL14; [5]): < 0.01 µM; IC50 (PRMT5-MEP50; [6]): < 0.01 µM
CCc1cc(NC)c2ccc(OC[C@H]3O[C@@H](n4cc(-c5ccn(C)n5)c5c(N)ncnc54)[C@@H](F)[C@@H]3O)cc2n1 [I-232],> 10 µM,> 10 µM,< 0.01 µM,0.1 to 1 µM,,,,,,IC50 (METTL1/WDR4; [4]): > 1 µM
CCNc1ccc2ccc(OC[C@H]3O[C@@H](n4cc(C5CCCC5)c5c(N)ncnc54)[C@H](O)[C@@H]3O)cc2n1 [I-8],,< 1 µM,,,,> 1 µM,< 0.01 µM,< 0.01 µM,,
